Assay results as given in publication PMC7734006 (Cancer Science, 2020).

Key:
[1] = test system: relapsed or refractory ALCL; conditions: 36 pediatric patients treated weekly; cited from earlier work
[2] = test system: relapsed or refractory systemic ALCL; conditions: cited from earlier work
[3] = test system: relapsed or refractory ALCL; conditions: 6 of 17 patients; cited from earlier work
[4] = Plasma alectinib pharmacokinetics; assay type: in vivo, human
[5] = patients who achieved CR with BV

CC[C@]1(O)C[C@@H]2CN(CCc3c([nH]c4ccccc34)[C@@](C(=O)OC)(c3cc4c(cc3OC)N(C)[C@H]3[C@@](O)(C(=O)OC)[C@H](OC(C)=O)[C@]5(CC)C=CCN6CC[C@]43[C@@H]65)C2)C1 [vinblastine]
5-year EFS rate [1]: 30% | CR rate [1]: 83%

BV: anti-CD30 Ab drug conjugated to the microtubule-disrupting agent, monomethyl auristatin E
CR rate ([2]; 33 of 58 patients): 57% | Objective response rate ([2]; 50 of 58 patients): 86% | Patients without recurrence with no treatment after a BV treatment regime [2]: approximately 15% | Peripheral neuropathies, patients [2]: 41% | 5-year OS [2, 5]: 79% | 5-year PFS [2, 5]: 57%

C#CCC(Cc1cnc2nc(N)nc(N)c2n1)c1ccc(C(=O)N[C@@H](CCC(=O)O)C(=O)O)cc1 (stereo partly shown) [pralatrexate]
Objective response rate [3]: 35%

CCc1cc2c(cc1N1CCC(N3CCOCC3)CC1)C(C)(C)c1[nH]c3cc(C#N)ccc3c1C2=O [alectinib]
Time to steady-state peak concentration (median) ([4]; cohort A: younger than 15 years, 300 mg/d): 4 h | Time to steady-state peak concentration (median) ([4]; cohort B: younger than 15 years, 600 mg/d): 5 h | Time to steady-state peak concentration (median) ([4]; cohort C: 15 years or older, 600 mg/d): 4 h | Peak concentration of alectinib ([4]; the patient who died following disease progression after the first course (cohort C)): 16.97 mg/mL
